Experimental findings from patent US20240262807A1, “COMPOUND USED AS BCR-ABL INHIBITOR” (CHIA TAI TIANQING PHARMACEUTICAL GROUP CO., LTD., priority 2021, published 2024) are described below.

The subject of series [1] is K562 cells. In words: Inhibitory effect of compounds on proliferation of K562 cells (CCK-8). In kind it is cell-based. The settings on record: Homo sapiens, 72 h with compound, CCK-8, 5% serum. Here is the method: K562 cells in logarithmic growth phase and good cell condition were added to a centrifuge tube and centrifuged at 1000 rpm for 5 min in a low speed centrifuge. […] The cells were seeded on a 96-well plate at 100 µL/well using a multi-channel pipette and cultured in a cell incubator at 37° ° C. 5% CO2 and saturated humidity. […] Inhibition rate (%)=(mean value of negative control group−mean value of experimental group)/(mean value of negative control group−mean value of blank group)×100%. A dose-response curve was fitted by four-parameter analysis, with the logarithm of compound concentration serving as abscissa and inhibition rate serving as ordinate, such that IC50 was calculated.

Series [2] concerns the target T1, Ba/F3-BCR-ABL1-T315I-C3 cells (Homo sapiens, UniProt P00519, T315I, cells depend on it).
T1 construct: fused on or other part: P11274 (Breakpoint cluster region protein)
Kind of series: Inhibitory effect of compounds on proliferation of BCR-ABL T315I-transfected Ba/F3 cells (CCK-8). The class given is cell-based. The note with it: 72 h with compound, CCK-8, 5% serum, read-out: IC50 (nM) Ba/F3-BCR-ABL1 T315I. Here is the method:
Ba/F3-BCR-ABL1-T315I-C3 cells in logarithmic growth phase and good cell condition were added to a centrifuge tube and centrifuged at 1000 rpm for 5 min in a low speed centrifuge. The supernatant was discarded, and 5 mL of complete medium (RPMI 1640 basic medium+10% FBS) was added using a pipette for cell resuspension. The cells were counted using a cell counter, diluted with complete medium to a cell density of 6×10^4 cells/mL, and an equivalent amount of RPMI 1640 basic medium was added to adjust the serum concentration to 5% and the cell density to 3×10^4 cells/mL for plate seeding. The cells were seeded on a 96-well plate at 100 μL/well using a multi-channel pipette and cultured in a cell incubator at 37° C. 5% CO2 and saturated humidity. After 24 h incubation, compounds were loaded using a nanoliter pipettor, 8 concentrations (1000 nM, 250 nM, 63 nM, 16 nM, 3.9 nM, 0.98 nM, 0.24 nM, 0.061 nM) were set for each compound, and 2 replicate wells were set for each concentration; cells with no compounds added were taken as a negative control, and a plating medium with no cells added was taken as a blank control. After 72 h. […] Inhibition rate (%)=(mean value of negative control group−mean value of experimental group)/(mean value of negative control group−mean value of blank group)×100%. A dose-response curve was fitted by four-parameter analysis, with the logarithm of compound concentration serving as abscissa and inhibition rate serving as ordinate, such that ICso was calculated.

Series [3] in a line: Evaluation of pharmacokinetics in mice. The class given is in vivo. The settings on record: mouse, plasma, po, ICR mice; for bioavailability: ig 10 mg/kg, (intragastric AUC×intravenous dosage)/(intravenous AUC×intragastric dosage)×100%, read-out: Fabs(%) absolute bioavailability; for Cmax / Tmax / half-life / AUC(0-t) / MRT last: ig, 10 mg/kg; for AUC(0-t): read-out: AUC(0-24); for MRT last: read-out: MRT(0-24). Here is the method:
ICR mice (purchased from Shanghai Sippe-Bk Lab Animal Co., Ltd.) of 18-22 g were randomized into groups of 9 after 3-5 days of acclimatization and administered with the compounds at a dose of 10 mg/kg by intragastric administration. The animals to be tested (ICR mice) were fasted overnight before administration and food was provided 4 h after administration, and water was freely drunk before and after the experiment and during the experiment. After intragastric administration, about 0.1 mL of blood was collected from the orbit at 0.25 (15 min), 0.5 (30 min), 1, 2, 3, 4, 6, 8, 10, and 24 h (Each mouse was subjected to blood collection at 3-4 time points, with three mice per time point). The blood samples were mixed with EDTA-K2 anticoagulant, transferred to a centrifuge within 30 min, and then centrifuged at 4000 rpm for 10 min at 4° C. to separate the plasma. All the plasma samples were collected and immediately stored at −20° C. for testing.
300 μL of acetonitrile solution containing an internal standard (20 ng/ml diazepam) was added to 30 μL of the plasma sample and standard curve sample. The mixture was shaken and mixed well for 5 min, and centrifuged at 13.000 rpm for 10 min. 70 μL of supernatant was taken and diluted with 70 μL of ultrapure water. After being mixed well, 1 μL of the resulting sample was subjected to LC/MS/MS, and a chromatogram was recorded.
Oral exposure of the compounds was evaluated by in vivo pharmacokinetic experiments in mice. The relevant pharmacokinetic parameters were fitted by using DAS3.2.5 software, where absolute bioavailability Fabs(%)=(intragastric AUC×intravenous dosage)/(intravenous AUC×intragastric dosage)×100%.

In series [4] the target is T2, hERG potassium channel (Homo sapiens, UniProt Q12809).
T2 construct: expressed in transfected cells; host or cells: HEK-293 cells, stably transformed
In words: Evaluation of cardiac safety: hERG potassium channel whole-cell patch clamp in HEK-293 cells. The class given is cell-based. The settings on record: HEK-293 cells over-expressing hERG potassium channel, tail current, room temperature. Here is the method:
The cell strains were derived from HEK-293 cells over-expressing hERG potassium channel. The cells were cultured in an incubator at 37° C. 5% CO2. […]
The stably-transformed cells were seeded onto a slide at a cell density of less than 50% and cultured overnight. […] Membrane currents were recorded by using a HEKA EPC-10 patch clamp amplifier and PATCHMASTER acquisition system (HEKA Instruments Inc., D-67466 Lambrecht. Pfalz. Germany) and analyzed and counted by using Origin 8.5 (OriginLab Corporation. Northampton. MA) software and Microsoft Excel (results in Table 4). […]
Channel currents were recorded in the experiments using a whole-cell recording mode. An extracellular fluid (approximately 2 mL per min) was firstly perfused, the process was continuously recorded, and the current was waited for stabilization (current decay (Run-Down) was less than 5% in 5 min); at this point, the tail current peak value was the control current value. Then, the extracellular fluid containing the test drug was perfused, and the process was continuously recorded until the inhibitory effect of the drug on the hERG current reached a stable state; at this point, the tail current peak value was the current value after dosing. […]
(In general: Block of hERG is tested as a sign of cardiac risk.)

T2 sequence (Q12809 whole entry): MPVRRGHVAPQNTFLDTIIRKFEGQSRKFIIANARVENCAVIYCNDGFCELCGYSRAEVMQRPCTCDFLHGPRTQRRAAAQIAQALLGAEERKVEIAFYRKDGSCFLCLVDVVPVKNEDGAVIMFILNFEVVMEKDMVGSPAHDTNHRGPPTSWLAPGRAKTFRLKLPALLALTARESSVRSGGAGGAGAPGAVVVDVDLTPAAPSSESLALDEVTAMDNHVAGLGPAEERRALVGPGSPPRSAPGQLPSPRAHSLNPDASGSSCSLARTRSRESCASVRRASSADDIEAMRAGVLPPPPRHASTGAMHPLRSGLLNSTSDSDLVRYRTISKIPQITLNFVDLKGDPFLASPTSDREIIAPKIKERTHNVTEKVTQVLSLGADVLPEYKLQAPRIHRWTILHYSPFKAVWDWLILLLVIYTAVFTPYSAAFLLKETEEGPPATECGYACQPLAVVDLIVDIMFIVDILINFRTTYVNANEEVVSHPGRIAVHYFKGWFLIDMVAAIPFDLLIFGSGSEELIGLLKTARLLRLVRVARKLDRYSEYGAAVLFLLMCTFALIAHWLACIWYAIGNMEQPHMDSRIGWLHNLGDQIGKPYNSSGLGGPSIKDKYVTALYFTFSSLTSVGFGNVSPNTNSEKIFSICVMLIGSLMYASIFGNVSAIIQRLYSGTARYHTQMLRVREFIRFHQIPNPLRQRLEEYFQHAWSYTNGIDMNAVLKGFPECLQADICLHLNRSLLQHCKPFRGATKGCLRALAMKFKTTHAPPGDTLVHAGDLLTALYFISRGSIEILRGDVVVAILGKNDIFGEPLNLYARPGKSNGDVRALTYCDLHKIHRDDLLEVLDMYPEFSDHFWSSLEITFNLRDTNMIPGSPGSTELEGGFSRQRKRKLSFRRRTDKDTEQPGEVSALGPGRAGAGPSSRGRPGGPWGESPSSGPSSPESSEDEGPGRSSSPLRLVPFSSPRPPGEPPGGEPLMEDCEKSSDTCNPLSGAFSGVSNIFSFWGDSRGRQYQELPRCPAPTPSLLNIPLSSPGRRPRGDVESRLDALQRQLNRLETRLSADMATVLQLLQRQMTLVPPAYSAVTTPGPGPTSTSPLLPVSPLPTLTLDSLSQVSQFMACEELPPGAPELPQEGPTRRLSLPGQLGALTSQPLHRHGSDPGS

With `Cn1ccc(-c2cc(C(=O)Nc3ccc(OC(F)(F)Cl)cc3)cnc2N2CCOCC2)cc1=O` [Compound 7], the IC50 in series [1] turned out to be 11 nM. In addition, in series [2], the GI50 is 16 nM. In addition, in series [3], the bioavailability came out at 74.1%, the Cmax was found to be 772 ng/mL, the Tmax was determined as 3 h and the half-life was 63 min. In series [3], the AUC(0-t) came out at 2850 ng·h/mL and the MRT last amounted to 3.03 h.

For the compound `Cn1ccc(-c2cc(C(=O)Nc3ccc(OC(F)(F)Cl)cc3)cnc2N2CCCC2)cc1=O` [Compound 15], the half-maximal inhibitory concentration (IC50) in series [1] was determined as 3.1 nM. Also, the GI50 in series [2] was 9.6 nM. In series [3], the bioavailability was found to be 106%, the peak level (Cmax) was 2330 ng/mL, the Tmax was 2 h and the half-life was 127 min. Moreover, in series [3], the AUC(0-t) is 12300 ng·h/mL and the MRT last amounted to 3.64 h.

As for `Cn1ccc(-c2cc(C(=O)Nc3ccc(OC(F)(F)Cl)cc3)cnc2N2CC[C@@H](F)C2)cc1=O` [Compound 16], the half-maximal inhibitory concentration (IC50) in series [1] was 2.1 nM. The GI50 in series [2] was 4.7 nM. Besides, in series [3], the bioavailability came out at 93.2%, the peak level (Cmax) was 1880 ng/mL, the time to peak (Tmax) was 3 h and the half-life was 87.6 min. In series [3], the AUC(0-t) is 9690 ng·h/mL and the MRT last came to 3.33 h.

`CN(C)c1ncc(C(=O)Nc2ccc(OC(F)(F)Cl)cc2)cc1-c1cc(=O)n(C)cn1` [Compound 61]: in series [1], the IC50 was determined as 5.6 nM. The GI50 in series [2] is 3 nM. In series [3], the bioavailability was 95.1%, the maximum concentration (Cmax) was 3200 ng/mL, the time of peak concentration (Tmax) was 2 h and the half-life was 625 min. Further, in series [3], the AUC(0-t) came out at 24100 ng·h/mL and the MRT last was found to be 4.83 h.

Consider `O=C(Nc1ccc(OC(F)(F)Cl)cc1)c1cnc(N2CC(O)C2)c(-c2cc3c([nH]2)C(=O)NC3)c1` [Compound 104], for which the IC50 in series [1] was 1.2 nM; in series [4], over 30 µM. Moreover, in series [2], the GI50 stood at 0.86 nM.

Consider `O=C(Nc1ccc(OC(F)(F)Cl)cc1)c1cnc(N2CC[C@@H](O)C2)c(-c2cc3c([nH]2)C(=O)NC3)c1` [Compound 106], for which the IC50 in series [1] was 1.1 nM; in series [4] it was over 30 µM. For the same compound, the GI50 in series [2] was found to be 0.54 nM.

What is called IC50 is the concentration needed to halve the response being measured. As a reminder, the Cmax is the highest concentration seen after dosing. Broadly, the Tmax is the time from dosing to the highest level. The term half-life denotes the time in which the quantity being followed falls by half. A low value points to rapid decline.
